This passage reports IC50 results from patent US11267811B2, “Small molecule inhibitors of galectin-3” (BRISTOL-MYERS SQUIBB COMPANY, priority 2017, dated 2022).

Broadly, the IC50 is the concentration that gives 50% inhibition.

The target in one assay is His-tagged recombinant human Gal-3 (hGal-3) (Homo sapiens (Human), UniProt P17931). Nature of the assay: Gal-3 HTRF assay (His-tagged hGal-3 binding to B-ASF).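 Also: compounds preincubated 30 min with hGal-3, then 1 h with B-ASF, detection via terbium anti-His antibody and streptavidin d2. Control with B-ASF counts as full signal, omitting B-ASF as background.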 As to conditions: HTRF, hGal-3 15 nM, B-ASF 15 nM; read-out: hGal-3 IC50. (TR-FRET usually uses a lanthanide donor and a delayed reading to cut background.)
His-tagged recombinant human Gal-3 (hGal-3), sequence (P17931 whole entry): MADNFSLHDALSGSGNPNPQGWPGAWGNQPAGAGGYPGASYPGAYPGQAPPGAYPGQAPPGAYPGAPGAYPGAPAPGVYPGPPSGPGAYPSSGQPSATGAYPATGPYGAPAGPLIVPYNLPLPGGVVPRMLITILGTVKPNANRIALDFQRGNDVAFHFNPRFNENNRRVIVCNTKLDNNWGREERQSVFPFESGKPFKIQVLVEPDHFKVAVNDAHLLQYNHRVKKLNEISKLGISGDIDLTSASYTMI
Take `OC[C@H]1O[C@@H](c2nncn2-c2ccc(OC(F)(F)F)cc2)[C@H](O)[C@@H](n2cc(-c3cc(F)c(F)c(F)c3)nn2)[C@H]1O` [Example 94]: the IC50 was 1130 nM.

Take `OC[C@H]1O[C@@H](c2nncn2-c2ccc(Cl)c(Cl)c2)[C@H](O)[C@@H](n2cc(-c3cc(F)c(F)c(F)c3)nn2)[C@H]1O` [Example 131, (2S,3R,4R,5R,6R)-2-(4-(3,4-dichlorophenyl)-4H-1,2,4-triazol-3-yl)-6-(hydroxymethyl)-4-(4-(3,4,5-trifluorophenyl)-1H-1,2,3-triazol-1-yl)tetrahydro-2H-pyran-3,5-diol]: the IC50 was 100 nM.

`CSc1cc(Cl)cc(-n2cnnc2[C@@H]2O[C@H](CO)[C@H](O)[C@H](n3cc(-c4cc(F)c(F)c(F)c4)nn3)[C@H]2O)c1` [Example 147]: the IC50 amounted to 60 nM.

On to `Cc1ccc(-n2cnnc2[C@@H]2O[C@H](CO)[C@H](O)[C@H](n3cc(-c4cc(F)c(F)c(F)c4)nn3)[C@H]2O)cc1C` [Example 77], for which the IC50 is 140 nM.

With `OC[C@H]1O[C@@H](c2ncnn2-c2ccccc2Cl)[C@H](O)[C@@H](n2cc(-c3cc(F)c(F)c(F)c3)nn2)[C@H]1O` [Example 24], the IC50 was determined as 480 nM.

Take `Cc1nc2cc(-n3cnnc3[C@@H]3O[C@H](CO)[C@H](O)[C@H](n4cc(-c5cc(F)c(F)c(F)c5)nn4)[C@H]3O)ccc2s1` [Example 143]: the IC50 is 410 nM.

Consider `Cc1ncc(-c2cccc(-n3ncnc3[C@@H]3O[C@H](CO)[C@H](O)[C@H](n4cc(-c5cc(F)c(F)c(F)c5)nn4)[C@H]3O)c2)s1` [Example 52], for which the IC50 was determined as 300 nM.

Consider `Cc1nc([C@@H]2O[C@H](CO)[C@H](O)[C@H](n3cc(-c4cc(F)c(F)c(F)c4)nn3)[C@H]2O)n(-c2cc(C(F)(F)F)ccc2Cl)n1` [Example 70], for which the IC50 was 50 nM.

In the case of `OC[C@H]1O[C@@H](c2nncn2-c2cccc(Oc3ccccc3)c2)[C@H](O)[C@@H](n2cc(-c3cc(F)c(F)c(F)c3)nn2)[C@H]1O` [Example 78], the IC50 came to 830 nM.

Consider `N#Cc1cccc(-n2cnnc2[C@@H]2O[C@H](CO)[C@H](O)[C@H](n3cc(-c4cc(F)c(F)c(F)c4)nn3)[C@H]2O)c1` [Example 153], for which the IC50 came to 140 nM.

Consider `Cc1nc2cc(C)c(-n3ncnc3[C@@H]3O[C@H](CO)[C@H](O)[C@H](n4cc(-c5cc(F)c(F)c(F)c5)nn4)[C@H]3O)cc2s1` [Example 49], for which the IC50 was 50 nM.

Take `COc1ccccc1-n1cnnc1[C@@H]1O[C@H](CO)[C@H](O)[C@H](n2cc(-c3cc(F)c(F)c(F)c3)nn2)[C@H]1O` [Example 86]: the IC50 is 380 nM.

Turning to `COc1cccc(-c2cnnn2[C@@H]2O[C@H](CO)[C@H](O)[C@H](n3cc(-c4cc(F)c(F)c(F)c4)nn3)[C@H]2O)c1` [Example 9], the IC50 is 158 nM.

Consider `OC[C@H]1O[C@@H](c2ncnn2C2CCNCC2)[C@H](O)[C@@H](n2cc(-c3cc(F)c(F)c(F)c3)nn2)[C@H]1O` [Example 172], for which the IC50 worked out at 3840 nM.

Consider `OC[C@H]1O[C@@H](c2nncn2-c2ccc(Oc3ccccc3)cc2)[C@H](O)[C@@H](n2cc(-c3cc(F)c(F)c(F)c3)nn2)[C@H]1O` [Example 104], for which the IC50 was 820 nM.

For `OC[C@H]1O[C@@H](c2nncn2-c2ccc3ncccc3c2)[C@H](O)[C@@H](n2cc(-c3cc(F)c(F)c(F)c3)nn2)[C@H]1O` [Example 107], the IC50 amounted to 50 nM.

For the compound `Cc1nc([C@@H]2O[C@H](CO)[C@H](O)[C@H](n3cc(-c4ccc(Cl)c(F)c4)nn3)[C@H]2O)n(-c2cccc(Cl)c2)n1` [Example 244, (2S,3R,4R,5R,6R)-4-(4-(4-chloro-3-fluorophenyl)-1H-1,2,3-triazol-1-yl)-2-(1-(3-chlorophenyl)-3-methyl-1H-1,2,4-triazol-5-yl)-6-(hydroxymethyl)tetrahydro-2H-pyran-3,5-diol], the IC50 turned out to be 80 nM.

Consider `OC[C@H]1O[C@@H](c2ncnn2-c2ccc(Cl)c(Cl)c2)C[C@@H](n2cc(-c3cc(F)c(F)c(F)c3)nn2)[C@H]1O` [Example 174], for which the IC50 worked out at 300 nM.

As for `Cc1nc2ccc(-n3ncnc3[C@@H]3O[C@H](CO)[C@H](O)[C@H](n4cc(C(N)=O)nn4)[C@H]3O)cc2s1` [Example 194], the IC50 came out at 4090 nM.

As to `OC[C@H]1O[C@@H](c2nncn2-c2cccc(OCc3ccccc3)c2)[C@H](O)[C@@H](n2cc(-c3cc(F)c(F)c(F)c3)nn2)[C@H]1O` [Example 108], the IC50 was 370 nM.

As to `OC[C@H]1O[C@@H](c2oncc2-c2ccc(Cl)c(Cl)c2)[C@H](O)[C@@H](n2cc(-c3cc(F)c(F)c(F)c3)nn2)[C@H]1O` [Example 288, (2R,3R,4S,5R,6R)-2-(4-(3,4-dichlorophenyl)isoxazol-5-yl)-6-(hydroxymethyl)-4-(4-(3,4,5-trifluorophenyl)-1H-1,2,3-triazol-1-yl)tetrahydro-2H-pyran-3,5-diol], the half-maximal inhibitory concentration (IC50) was 4000 nM.

As to `OC[C@H]1O[C@@H](c2nncn2-c2ccccc2OC(F)(F)F)[C@H](O)[C@@H](n2cc(-c3cc(F)c(F)c(F)c3)nn2)[C@H]1O` [Example 102], the IC50 is 300 nM.

Take `OC[C@H]1O[C@@H](c2nncn2Cc2cccs2)[C@H](O)[C@@H](n2cc(-c3cc(F)c(F)c(F)c3)nn2)[C@H]1O` [Example 127]: the IC50 worked out at 1280 nM.

As for `OC[C@H]1O[C@@H](c2nncn2-c2cccc(F)c2)[C@H](O)[C@@H](n2cc(-c3cc(F)c(F)c(F)c3)nn2)[C@H]1O` [Example 154], the IC50 amounted to 80 nM.

The same assay, now with this note: read-out: hGal3 IC50.
Take `Cc1nc2ccc(-n3ncnc3[C@@H]3O[C@H](CO)[C@H](O)[C@H](n4cc(-c5ccc(Br)cc5)nn4)[C@H]3O)cc2s1` [Example 225]: the IC50 was determined as 210 nM.

In the case of `Cc1nc2ccc(-n3ncnc3[C@@H]3O[C@H](CO)[C@H](O)[C@H](n4cc(-c5ccc(C(F)(F)F)c(F)c5)nn4)[C@H]3O)cc2s1` [Example 209], the IC50 stood at 80 nM.

On to `Cc1nc2cc(-c3cn([C@H]4[C@@H](O)[C@@H](CO)O[C@@H](c5ncnn5-c5ccc6nc(C)sc6c5)[C@@H]4O)nn3)cc(F)c2o1` [Example 227], for which the IC50 worked out at 250 nM.

On to `Cc1nc([C@H]2C[C@@H](n3cc(-c4cc(F)c(Cl)c(F)c4)nn3)[C@@H](O)[C@@H](CO)O2)n(-c2ccc3ncsc3c2)n1` [Example 265], for which the IC50 was 30 nM.

With `Cc1nc([C@@H]2O[C@H](CO)[C@H](O)[C@H](n3cc(-c4ccc(Cl)c(F)c4)nn3)[C@H]2O)n(-c2ccc3ncccc3c2)n1` [Example 253], the IC50 was 80 nM.

The same assay, now with this note: read-out: hGal IC50.
With `Cc1nc([C@@H]2O[C@H](CO)[C@H](O)[C@H](n3cc(-c4ccc5nccnc5c4)nn3)[C@H]2O)n(-c2cc(Cl)ccc2C(F)(F)F)n1` [Example A66], the 50% inhibitory concentration (IC50) stood at 208 nM.

With `Cc1nc([C@@H]2O[C@H](CO)[C@H](O)[C@H](n3cc(-c4ncc(Cl)cc4Cl)nn3)[C@H]2O)n(-c2cc(Cl)ccc2C(F)(F)F)n1` [Example A62], the IC50 is 172 nM.

For `Cc1nc([C@@H]2O[C@H](CO)[C@H](O)[C@H](n3cc(-c4cc(F)c(Cl)c(F)c4)nn3)[C@H]2O)n(-c2cc(Cl)cc(F)c2Cl)n1` [Example A49], the IC50 was 46 nM.

For the compound `Cc1nc([C@@H]2O[C@H](CO)[C@H](O)[C@H](n3cc(-c4cc(F)c(Cl)c(F)c4)nn3)[C@H]2O)n(-c2cc(Cl)ccc2C(F)F)n1` [Example A60], the IC50 was determined as 36 nM.

`Cc1nc([C@@H]2O[C@H](CO)[C@H](O)[C@H](n3cc(-c4ccc(Br)c(F)c4)nn3)[C@H]2O)n(-c2cc(Cl)cnc2C(F)(F)F)n1` [Example A71]: the IC50 worked out at 49 nM.
